Laboratory results from US12234232B2, “Aromatic heterocyclic compound with kinase inhibitory activity” (SHANGHAI ENNOVABIO PHARMACEUTICALS CO., LTD., priority 2018, dated 2025).

How the values were obtained:
JAK3 protein = biological target: T1, JAK3 protein (Homo sapiens, UniProt P52333); test: In vitro JAK3 kinase activity assay (HTRF kinEASE TK); format: biochemical; details: 0.75 μM ATP, 25 minutes, room temperature; read-out: IC50 JAK3 (enzyme activity assay)
T1 construct: purchased Carna Biosciences
T1 sequence (P52333 1-1124): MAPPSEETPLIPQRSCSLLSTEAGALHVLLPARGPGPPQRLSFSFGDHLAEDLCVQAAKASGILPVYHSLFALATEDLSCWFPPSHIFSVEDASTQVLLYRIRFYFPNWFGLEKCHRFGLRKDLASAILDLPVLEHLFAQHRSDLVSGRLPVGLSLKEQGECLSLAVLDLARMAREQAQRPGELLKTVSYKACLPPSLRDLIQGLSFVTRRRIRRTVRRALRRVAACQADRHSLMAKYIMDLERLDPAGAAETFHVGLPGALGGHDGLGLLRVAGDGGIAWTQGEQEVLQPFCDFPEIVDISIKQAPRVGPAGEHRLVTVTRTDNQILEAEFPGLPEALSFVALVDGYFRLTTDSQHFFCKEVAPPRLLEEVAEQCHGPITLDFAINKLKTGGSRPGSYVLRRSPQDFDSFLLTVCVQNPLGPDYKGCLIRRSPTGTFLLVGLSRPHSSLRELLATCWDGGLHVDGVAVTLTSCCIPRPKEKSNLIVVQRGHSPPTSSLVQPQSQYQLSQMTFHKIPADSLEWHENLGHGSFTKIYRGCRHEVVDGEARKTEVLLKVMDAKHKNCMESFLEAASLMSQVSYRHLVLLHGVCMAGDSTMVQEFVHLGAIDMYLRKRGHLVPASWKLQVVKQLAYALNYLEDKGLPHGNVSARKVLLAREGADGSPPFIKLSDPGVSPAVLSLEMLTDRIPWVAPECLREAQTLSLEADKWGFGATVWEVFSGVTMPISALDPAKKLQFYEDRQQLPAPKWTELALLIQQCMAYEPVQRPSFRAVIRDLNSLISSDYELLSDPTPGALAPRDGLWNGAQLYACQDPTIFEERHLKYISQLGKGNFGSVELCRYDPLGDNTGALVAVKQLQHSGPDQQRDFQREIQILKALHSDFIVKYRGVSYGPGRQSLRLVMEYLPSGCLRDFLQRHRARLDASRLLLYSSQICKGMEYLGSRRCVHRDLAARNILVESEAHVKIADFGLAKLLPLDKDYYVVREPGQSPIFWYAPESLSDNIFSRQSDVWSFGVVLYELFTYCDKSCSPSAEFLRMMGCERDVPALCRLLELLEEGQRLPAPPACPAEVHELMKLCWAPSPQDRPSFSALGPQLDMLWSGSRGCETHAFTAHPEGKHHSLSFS
Outline: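 Recombinant JAK3 ([…]) with 1 μM biotinylated TK substrate peptide and 0.75 μM ATP, 5 mM MgCl2, 1 mM DTT, 1% DMSO; 25 min at room temperature. HTRF read-out (SA-XL665, TK-antibody, overnight) as 665/620 ratio; compounds 10 μM–0.04 nM, 4-fold, duplicates; IC50 from 4-parameter fit.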

JAK2 = JAK2 (Homo sapiens, UniProt O60674); test: In vitro JAK2 kinase activity assay (HTRF kinEASE TK); format: biochemical; parameters: purchased Carna Biosciences; details: 2.7 μM ATP, 25 minutes, room temperature; read-out: IC50 JAK2 (enzyme activity assay)
Outline: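 HTRF kinase reaction with 0.001 ng/μl recombinant human JAK2, 1 μM biotinylated TK substrate peptide, 2.7 μM ATP, 5 mM MgCl2, 1 mM DTT, 25 min at room temperature; compounds 10 μM–0.04 nM, 4-fold steps, duplicate, 1% DMSO. Detection overnight; 665/620 ratio converted to % inhibition, IC50 by 4-parameter fit.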

JAK1 = JAK1 (Homo sapiens, UniProt P23458); test: Cellular JAK1 activity assay: IL-6-stimulated STAT3 phosphorylation in TF-1 cells; format: cell-based; parameters: endogenous in cells; host or cells: TF-1 cells (ATCC); details: IL-6 (30 ng/mL), pSTAT3, read-out: IC50 Cell JAK1
JAK1, sequence (P23458 whole entry): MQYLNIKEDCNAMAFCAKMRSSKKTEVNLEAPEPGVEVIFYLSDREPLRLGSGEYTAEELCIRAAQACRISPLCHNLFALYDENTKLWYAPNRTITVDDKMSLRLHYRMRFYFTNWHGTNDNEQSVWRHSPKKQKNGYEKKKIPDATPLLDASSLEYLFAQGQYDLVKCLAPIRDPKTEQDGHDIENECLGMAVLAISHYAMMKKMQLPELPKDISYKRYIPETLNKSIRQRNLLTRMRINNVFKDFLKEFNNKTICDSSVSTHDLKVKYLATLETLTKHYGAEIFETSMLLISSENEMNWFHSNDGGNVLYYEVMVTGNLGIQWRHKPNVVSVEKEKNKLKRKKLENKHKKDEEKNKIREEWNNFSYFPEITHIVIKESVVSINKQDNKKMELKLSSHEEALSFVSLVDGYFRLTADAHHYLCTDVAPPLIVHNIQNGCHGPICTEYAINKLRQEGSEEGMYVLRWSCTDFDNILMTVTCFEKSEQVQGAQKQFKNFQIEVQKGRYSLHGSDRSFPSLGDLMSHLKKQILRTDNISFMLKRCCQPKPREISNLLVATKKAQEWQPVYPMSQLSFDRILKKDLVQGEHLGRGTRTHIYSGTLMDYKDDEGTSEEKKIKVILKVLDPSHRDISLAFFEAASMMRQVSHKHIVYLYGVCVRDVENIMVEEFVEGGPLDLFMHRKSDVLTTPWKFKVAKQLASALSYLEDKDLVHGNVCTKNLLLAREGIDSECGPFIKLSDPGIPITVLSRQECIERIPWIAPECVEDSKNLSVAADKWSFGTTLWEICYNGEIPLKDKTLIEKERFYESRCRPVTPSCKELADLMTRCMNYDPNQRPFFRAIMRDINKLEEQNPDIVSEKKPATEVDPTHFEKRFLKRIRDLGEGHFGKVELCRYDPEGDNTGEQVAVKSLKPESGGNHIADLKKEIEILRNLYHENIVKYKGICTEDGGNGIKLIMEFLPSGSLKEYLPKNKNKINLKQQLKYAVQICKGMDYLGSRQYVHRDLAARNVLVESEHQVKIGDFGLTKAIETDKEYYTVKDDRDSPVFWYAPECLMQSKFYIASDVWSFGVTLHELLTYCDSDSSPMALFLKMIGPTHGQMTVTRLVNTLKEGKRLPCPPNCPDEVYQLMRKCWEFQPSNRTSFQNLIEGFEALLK

JAK2, sequence (O60674 whole entry): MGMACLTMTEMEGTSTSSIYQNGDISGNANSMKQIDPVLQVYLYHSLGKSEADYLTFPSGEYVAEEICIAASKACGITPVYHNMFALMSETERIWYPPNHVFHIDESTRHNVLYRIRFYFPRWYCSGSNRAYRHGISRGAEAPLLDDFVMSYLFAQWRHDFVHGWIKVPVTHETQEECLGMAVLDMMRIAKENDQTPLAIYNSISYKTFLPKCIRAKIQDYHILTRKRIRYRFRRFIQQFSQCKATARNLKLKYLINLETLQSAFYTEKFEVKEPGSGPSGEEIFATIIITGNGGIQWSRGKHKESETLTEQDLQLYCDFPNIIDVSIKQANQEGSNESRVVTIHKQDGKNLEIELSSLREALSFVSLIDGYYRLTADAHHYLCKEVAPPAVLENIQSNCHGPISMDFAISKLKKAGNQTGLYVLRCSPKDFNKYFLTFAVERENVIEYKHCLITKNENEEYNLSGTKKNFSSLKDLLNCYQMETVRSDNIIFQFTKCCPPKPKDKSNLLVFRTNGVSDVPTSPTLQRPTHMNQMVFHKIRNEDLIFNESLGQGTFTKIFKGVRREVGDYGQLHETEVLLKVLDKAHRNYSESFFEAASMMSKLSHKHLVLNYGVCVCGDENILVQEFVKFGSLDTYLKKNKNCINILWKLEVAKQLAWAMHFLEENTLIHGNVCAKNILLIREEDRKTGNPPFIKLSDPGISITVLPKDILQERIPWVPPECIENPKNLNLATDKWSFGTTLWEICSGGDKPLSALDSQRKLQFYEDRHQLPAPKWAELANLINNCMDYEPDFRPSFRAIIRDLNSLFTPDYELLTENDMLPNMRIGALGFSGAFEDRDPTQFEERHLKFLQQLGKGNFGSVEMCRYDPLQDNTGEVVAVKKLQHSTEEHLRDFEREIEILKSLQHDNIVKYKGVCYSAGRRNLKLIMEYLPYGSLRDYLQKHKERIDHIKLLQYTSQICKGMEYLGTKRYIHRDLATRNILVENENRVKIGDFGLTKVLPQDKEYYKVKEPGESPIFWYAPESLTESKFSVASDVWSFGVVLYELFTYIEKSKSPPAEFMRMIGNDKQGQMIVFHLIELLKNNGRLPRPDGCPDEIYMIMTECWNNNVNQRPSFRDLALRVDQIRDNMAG

## CC[C@H](C(=O)Nc1nccc2c(-c3nc(Nc4cn(C)nc4OC)ncc3C)c[nH]c12)N1CCN(C)CC1 [Example 4, (R)—N-(3-(2-((3-Methoxy-1-methyl-1H-pyrazol-4-yl)amino)-5-methylpyrimidin-4-yl)-1H-pyrrolo[2,3-c]pyridin-7-yl)-2-(4-methylpiperazin-1-yl)butanamide]
JAK3 protein
  IC50: < 500 nM
JAK2
  IC50: < 100 nM
JAK1
  IC50: < 100 nM
